# Assay results published in ChEMBL document CHEMBL2380214, “Novel hybrids of (phenylsulfonyl)furoxan and anilinopyrimidine as potent and selective epidermal growth factor receptor inhibitors for intervention of non-small-cell lung cancer” (J Med Chem, 2013).
# Calls of active or inactive are those of the source. No cut-off for these calls is given here.
# Legend:
# Mus musculus = assay: Toxicity in athymic BALB/c nude mouse xenografted with gefitinib-resistant human NCI-H1975 cells harboring EGFR L858R/[…] double mutant assessed as body mass loss at 14 mg/kg, ip qd administered for 14 days measured every other day during compound administration relative to vehicle-treated control; type: organism-based; set-up: dose 14 mg/kg, route intraperitoneal; conditions: in vivo, 336 h
# NCI-H1975 [1] = assay: Antitumor activity against gefitinib-resistant human NCI-H1975 cells harboring EGFR L858R/[…] double mutant xenografted in athymic BALB/c nude mouse assessed as tumor growth inhibition at 14 mg/kg, ip qd administered for 14 days measured every other day during compound administration relative to vehicle-treated control; type: functional; conditions: 336 h, route intraperitoneal, read-out: TGI
# NCI-H1975 [2] = assay: Inhibition of NFkappaB phosphorylation in gefitinib-resistant human NCI-H1975 cells harboring EGFR L858R/[…] double mutant at 0.01 to 1 uM after 24 hrs by Western blot analysis; type: cell-based
# [3] = system: Epidermal growth factor receptor (Homo sapiens), P00533 [L858R,T790M]; assay: Inhibition of EGFR L858R/[…] double mutant phosphorylation in gefitinib-resistant human NCI-H1975 cells assessed as inhibition of ERK phosphorylation after 24 hrs by Western blot analysis; type: cell-based
# Epidermal growth factor receptor (Homo sapiens), P00533 [L858R,T790M], sequence (P00533 whole entry T790M/L858R, looked up): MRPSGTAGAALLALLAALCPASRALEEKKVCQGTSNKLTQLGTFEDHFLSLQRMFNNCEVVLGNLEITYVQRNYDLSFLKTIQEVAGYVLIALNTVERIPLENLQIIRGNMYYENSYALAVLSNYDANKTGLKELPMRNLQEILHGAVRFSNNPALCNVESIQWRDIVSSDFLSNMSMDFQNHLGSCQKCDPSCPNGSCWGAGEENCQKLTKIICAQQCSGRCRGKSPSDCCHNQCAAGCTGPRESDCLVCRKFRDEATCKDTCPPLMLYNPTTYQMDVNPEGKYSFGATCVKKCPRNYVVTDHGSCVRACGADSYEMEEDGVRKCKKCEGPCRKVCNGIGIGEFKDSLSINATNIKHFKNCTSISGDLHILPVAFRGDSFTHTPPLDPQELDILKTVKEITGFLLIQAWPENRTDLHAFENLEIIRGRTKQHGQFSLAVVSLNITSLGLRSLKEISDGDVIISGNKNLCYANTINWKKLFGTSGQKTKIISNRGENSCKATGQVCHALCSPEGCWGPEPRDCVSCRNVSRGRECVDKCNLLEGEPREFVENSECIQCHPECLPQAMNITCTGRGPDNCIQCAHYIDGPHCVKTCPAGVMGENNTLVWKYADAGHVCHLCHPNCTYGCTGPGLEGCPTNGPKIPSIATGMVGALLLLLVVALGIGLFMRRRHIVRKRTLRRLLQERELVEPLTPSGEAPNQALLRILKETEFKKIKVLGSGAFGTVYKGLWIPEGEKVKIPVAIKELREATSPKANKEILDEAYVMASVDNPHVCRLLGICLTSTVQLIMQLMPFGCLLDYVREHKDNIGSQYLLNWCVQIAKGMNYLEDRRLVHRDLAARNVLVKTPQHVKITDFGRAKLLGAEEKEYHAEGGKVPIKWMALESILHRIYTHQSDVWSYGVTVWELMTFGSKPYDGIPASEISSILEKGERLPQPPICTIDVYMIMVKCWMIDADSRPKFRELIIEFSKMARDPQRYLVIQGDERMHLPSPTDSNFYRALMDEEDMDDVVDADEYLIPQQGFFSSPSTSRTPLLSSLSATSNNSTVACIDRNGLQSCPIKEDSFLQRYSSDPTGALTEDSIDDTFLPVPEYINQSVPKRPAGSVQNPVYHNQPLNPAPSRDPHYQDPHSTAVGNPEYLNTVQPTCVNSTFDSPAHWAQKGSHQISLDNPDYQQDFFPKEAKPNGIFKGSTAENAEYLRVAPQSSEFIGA
# [4] = system: Epidermal growth factor receptor (Homo sapiens), P00533 [L858R,T790M]; assay: Inhibition of EGFR L858R/[…] double mutant phosphorylation in gefitinib-resistant human NCI-H1975 cells assessed as inhibition of AKT phosphorylation after 24 hrs by Western blot analysis; type: cell-based
# [5] = system: Epidermal growth factor receptor (Homo sapiens), P00533 [L858R,T790M]; assay: Inhibition of EGFR L858R/[…] double mutant phosphorylation in gefitinib-resistant human NCI-H1975 cells after 24 hrs by Western blot analysis; type: cell-based
# [6] = Induction of apoptosis in EGFR-independent human H460 cells at 1 to 5 uM after 24 hrs by annexin-V/7-AAD staining-based FACS flow cytometric analysis; type: cell-based; conditions: nci-h460, 24 h
# HCC827 [7] = assay: Induction of apoptosis in gefitinib-sensitive human HCC827 cells harboring EGFR […] deletion mutant after 24 hrs by annexin-V/7-AAD staining-based FACS flow cytometric analysis; type: functional, cell-based
# NCI-H1975 [8] = assay: Induction of apoptosis in gefitinib-resistant human NCI-H1975 cells harboring EGFR L858R/[…] double mutant after 24 hrs by annexin-V/7-AAD staining-based FACS flow cytometric analysis; type: functional, cell-based
# NCI-H1975 [9] = assay: Cytotoxicity against gefitinib-resistant human NCI-H1975 cells harboring EGFR L858R/[…] double mutant assessed as growth inhibition at 1 uM after 24 hrs by MTT assay in presence of hemoglobin; type: functional, cell-based
# HCC827 [10] = assay: Cytotoxicity against gefitinib-sensitive human HCC827 cells harboring EGFR […] deletion mutant assessed as growth inhibition at 1 uM after 24 hrs by MTT assay in presence of hemoglobin; type: functional, cell-based
# [11] = Induction of NO production in human 16HBE14o- cells harboring wild type EGFR assessed as increase in nitrite level at 100 uM after 150 mins by Griess assay; type: cell-based; conditions: 2.5 h
# NCI-H1975 [12] = assay: Induction of NO production in human NCI-H1975 cells harboring EGFR L858R/[…] double mutant assessed as increase in nitrite level at 100 uM after 150 mins by Griess assay; type: functional, cell-based
# [13] = Selectivity ratio of IC50 for human 16HBE14o- cells harboring wild type EGFR to IC50 for gefitinib-resistant human NCI-H1975 cells harboring EGFR L858R/[…] double mutant; type: ADME, cell-based; conditions: read-out: Ratio IC50
# [14] = Selectivity ratio of IC50 for human 16HBE14o- cells harboring wild type EGFR to IC50 for gefitinib-sensitive human HCC827 cells harboring EGFR […] deletion mutant; type: ADME, cell-based; conditions: read-out: Ratio IC50
# [15] = Selectivity ratio of IC50 for human BEAS2B cells harboring wild type EGFR to IC50 for gefitinib-resistant human NCI-H1975 cells harboring EGFR L858R/[…] double mutant; type: ADME, cell-based; conditions: read-out: Ratio IC50
# [16] = Selectivity ratio of IC50 for human BEAS2B cells harboring wild type EGFR to IC50 for gefitinib-sensitive human HCC827 cells harboring EGFR […] deletion mutant; type: ADME, cell-based; conditions: read-out: Ratio IC50
# [17] = Selectivity ratio of IC50 for human A431 cells overexpressing wild type EGFR to IC50 for gefitinib-resistant human NCI-H1975 cells harboring EGFR L858R/[…] double mutant; type: ADME, cell-based
# [18] = Selectivity ratio of IC50 for human A431 cells overexpressing wild type EGFR to IC50 for gefitinib-sensitive human HCC827 cells harboring EGFR […] deletion mutant; type: ADME, cell-based
# [19] = Selectivity ratio of IC50 for human A549 cells harboring wild type EGFR and k-RAS mutation to IC50 for gefitinib-resistant human NCI-H1975 cells harboring EGFR L858R/[…] double mutant; type: ADME, cell-based
# [20] = Selectivity ratio of IC50 for human A549 cells harboring wild type EGFR and k-RAS mutation to IC50 for gefitinib-sensitive human HCC827 cells harboring EGFR […] deletion mutant; type: ADME, cell-based
# cells [21] = type: ADME, cell-based; conditions: Homo sapiens, 16HBE14o-, 72 h
# Description: Cytotoxicity against human 16HBE14o- cells harboring wild type EGFR assessed as growth inhibition after 72 hrs by MTT assay
# cells [22] = type: ADME, cell-based; conditions: Homo sapiens, BEAS-2B, 72 h
# Description: Cytotoxicity against human BEAS2B cells harboring wild type EGFR assessed as growth inhibition after 72 hrs by MTT assay
# A-431 [23] = assay: cells; type: ADME, cell-based; conditions: Homo sapiens, A-431, 72 h
# Description: Cytotoxicity against human A431 cells overexpressing wild type EGFR assessed as growth inhibition after 72 hrs by MTT assay
# A549 [24] = assay: cells; type: ADME, cell-based; conditions: Homo sapiens, A549, 72 h
# Description: Cytotoxicity against human A549 cells harboring wild type EGFR and k-RAS mutation assessed as growth inhibition after 72 hrs by MTT assay
# NCI-H1975 [25] = assay: Cytotoxicity against gefitinib-resistant human NCI-H1975 cells harboring EGFR L858R/[…] double mutant assessed as growth inhibition after 72 hrs by MTT assay; type: functional, cell-based; conditions: NCI-H1975, 72 h
# [26] = biological target: Epidermal growth factor receptor (Homo sapiens, UniProt P00533)
# Epidermal growth factor receptor (Homo sapiens, UniProt P00533), sequence (P00533 whole entry): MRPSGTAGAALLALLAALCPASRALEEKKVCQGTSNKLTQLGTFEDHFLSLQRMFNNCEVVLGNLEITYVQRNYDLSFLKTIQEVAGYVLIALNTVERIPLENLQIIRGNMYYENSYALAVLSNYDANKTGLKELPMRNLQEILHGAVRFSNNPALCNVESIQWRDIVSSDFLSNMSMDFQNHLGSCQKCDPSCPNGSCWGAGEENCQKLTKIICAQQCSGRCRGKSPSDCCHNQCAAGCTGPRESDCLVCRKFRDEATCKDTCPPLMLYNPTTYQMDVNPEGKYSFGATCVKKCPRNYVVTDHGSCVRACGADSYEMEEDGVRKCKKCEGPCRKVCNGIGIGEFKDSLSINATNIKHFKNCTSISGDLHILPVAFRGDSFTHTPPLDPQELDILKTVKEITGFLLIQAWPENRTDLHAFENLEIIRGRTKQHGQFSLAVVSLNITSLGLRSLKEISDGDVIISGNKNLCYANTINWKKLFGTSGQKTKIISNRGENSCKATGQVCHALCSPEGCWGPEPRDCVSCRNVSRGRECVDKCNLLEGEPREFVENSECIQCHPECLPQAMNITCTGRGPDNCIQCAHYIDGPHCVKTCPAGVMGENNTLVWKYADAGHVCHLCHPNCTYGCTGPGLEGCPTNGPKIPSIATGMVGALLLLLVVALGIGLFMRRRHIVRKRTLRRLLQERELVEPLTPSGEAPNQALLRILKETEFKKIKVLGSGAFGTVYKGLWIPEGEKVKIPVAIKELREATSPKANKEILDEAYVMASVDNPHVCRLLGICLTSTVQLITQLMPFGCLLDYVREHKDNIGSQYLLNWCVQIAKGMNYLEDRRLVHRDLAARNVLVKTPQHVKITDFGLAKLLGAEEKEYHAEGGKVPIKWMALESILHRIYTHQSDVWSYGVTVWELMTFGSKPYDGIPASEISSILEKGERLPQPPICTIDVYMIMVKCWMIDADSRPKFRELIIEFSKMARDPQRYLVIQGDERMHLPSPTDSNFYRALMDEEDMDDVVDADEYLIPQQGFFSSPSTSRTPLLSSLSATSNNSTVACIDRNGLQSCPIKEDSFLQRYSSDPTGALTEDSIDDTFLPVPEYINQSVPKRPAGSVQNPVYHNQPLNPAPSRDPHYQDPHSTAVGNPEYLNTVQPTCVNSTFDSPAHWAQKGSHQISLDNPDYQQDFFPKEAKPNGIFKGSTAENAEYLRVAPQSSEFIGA
# Description: Inhibition of wild type EGFR (unknown origin) after 1.5 hrs by FRET-based Z'Lyte assay
# cells [27] = type: functional, cell-based; conditions: Homo sapiens, HCC827, 72 h
# [28] = biological target: Epidermal growth factor receptor (Homo sapiens, UniProt P00533, L858R/T790M); type: protein assay
# Epidermal growth factor receptor (Homo sapiens, UniProt P00533, L858R/T790M), sequence (P00533 25-1210 T790M/L858R limits assumed): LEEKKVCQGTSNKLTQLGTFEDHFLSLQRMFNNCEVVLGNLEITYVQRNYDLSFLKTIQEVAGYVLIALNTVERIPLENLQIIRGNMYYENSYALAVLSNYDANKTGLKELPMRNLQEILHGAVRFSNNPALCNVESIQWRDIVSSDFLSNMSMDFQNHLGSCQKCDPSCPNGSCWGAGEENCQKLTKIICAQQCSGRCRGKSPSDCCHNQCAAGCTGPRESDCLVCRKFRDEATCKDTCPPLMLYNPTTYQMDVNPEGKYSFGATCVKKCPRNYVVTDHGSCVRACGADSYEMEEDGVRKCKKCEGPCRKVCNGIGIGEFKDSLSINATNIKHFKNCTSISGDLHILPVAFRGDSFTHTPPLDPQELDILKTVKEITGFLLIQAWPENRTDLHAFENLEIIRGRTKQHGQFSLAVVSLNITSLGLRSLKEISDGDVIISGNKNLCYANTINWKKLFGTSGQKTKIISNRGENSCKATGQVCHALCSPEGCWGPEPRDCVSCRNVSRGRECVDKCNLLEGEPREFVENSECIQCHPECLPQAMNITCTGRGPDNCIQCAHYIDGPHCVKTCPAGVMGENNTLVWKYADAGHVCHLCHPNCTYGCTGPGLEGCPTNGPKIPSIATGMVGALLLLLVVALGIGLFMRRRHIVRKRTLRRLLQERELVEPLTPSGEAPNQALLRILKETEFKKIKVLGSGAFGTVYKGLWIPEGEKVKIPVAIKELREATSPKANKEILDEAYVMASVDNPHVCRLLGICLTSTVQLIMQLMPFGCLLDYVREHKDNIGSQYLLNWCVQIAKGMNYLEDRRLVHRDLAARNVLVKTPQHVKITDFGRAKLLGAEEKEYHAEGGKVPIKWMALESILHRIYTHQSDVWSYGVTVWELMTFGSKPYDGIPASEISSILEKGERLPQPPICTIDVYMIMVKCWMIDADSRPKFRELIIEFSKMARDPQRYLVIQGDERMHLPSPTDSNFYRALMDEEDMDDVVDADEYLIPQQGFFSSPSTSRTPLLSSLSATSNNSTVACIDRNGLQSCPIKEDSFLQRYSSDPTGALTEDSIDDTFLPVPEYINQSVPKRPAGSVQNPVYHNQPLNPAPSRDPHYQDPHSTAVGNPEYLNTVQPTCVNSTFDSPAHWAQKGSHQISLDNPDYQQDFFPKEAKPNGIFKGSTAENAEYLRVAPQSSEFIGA
# Description: Inhibition of EGFR L858R/T790M double mutant (unknown origin) after 1.5 hrs by FRET-based Z'Lyte assay
# [29] = biological target: Epidermal growth factor receptor (Homo sapiens, UniProt P00533, L858R); type: protein assay
# Epidermal growth factor receptor (Homo sapiens, UniProt P00533, L858R), sequence (P00533 25-1210 L858R limits assumed): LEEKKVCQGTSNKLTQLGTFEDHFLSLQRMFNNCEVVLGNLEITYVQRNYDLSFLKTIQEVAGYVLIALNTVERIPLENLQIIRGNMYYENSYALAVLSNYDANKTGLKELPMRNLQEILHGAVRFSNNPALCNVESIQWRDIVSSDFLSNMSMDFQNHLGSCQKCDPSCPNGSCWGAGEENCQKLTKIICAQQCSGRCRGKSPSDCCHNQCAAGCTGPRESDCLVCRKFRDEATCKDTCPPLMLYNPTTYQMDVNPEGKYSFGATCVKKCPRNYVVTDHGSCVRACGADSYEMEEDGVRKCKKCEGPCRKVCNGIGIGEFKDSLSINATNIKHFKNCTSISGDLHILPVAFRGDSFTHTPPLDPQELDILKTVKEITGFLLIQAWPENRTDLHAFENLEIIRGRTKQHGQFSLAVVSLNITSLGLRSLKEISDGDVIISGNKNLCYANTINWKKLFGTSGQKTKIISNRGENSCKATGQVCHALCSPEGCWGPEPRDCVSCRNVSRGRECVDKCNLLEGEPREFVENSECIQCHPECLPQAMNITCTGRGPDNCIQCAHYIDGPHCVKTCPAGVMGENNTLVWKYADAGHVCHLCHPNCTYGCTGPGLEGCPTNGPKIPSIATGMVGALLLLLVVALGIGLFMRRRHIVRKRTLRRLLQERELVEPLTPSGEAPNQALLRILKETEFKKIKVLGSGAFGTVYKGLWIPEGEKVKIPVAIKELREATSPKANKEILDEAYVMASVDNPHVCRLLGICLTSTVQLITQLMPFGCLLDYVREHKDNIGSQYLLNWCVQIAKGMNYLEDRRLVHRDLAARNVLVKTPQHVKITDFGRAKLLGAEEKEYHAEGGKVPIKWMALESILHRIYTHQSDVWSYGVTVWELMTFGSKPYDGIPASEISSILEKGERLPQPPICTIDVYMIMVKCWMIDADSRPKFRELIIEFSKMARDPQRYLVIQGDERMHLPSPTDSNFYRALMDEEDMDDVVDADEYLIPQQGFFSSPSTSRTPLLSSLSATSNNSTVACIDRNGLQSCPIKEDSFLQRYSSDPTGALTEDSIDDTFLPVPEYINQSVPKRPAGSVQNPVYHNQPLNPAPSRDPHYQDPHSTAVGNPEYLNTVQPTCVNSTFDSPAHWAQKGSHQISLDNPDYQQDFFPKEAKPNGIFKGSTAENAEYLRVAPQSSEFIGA
# Description: Inhibition of EGFR L858R mutant (unknown origin) after 1.5 hrs by FRET-based Z'Lyte assay
# A549 [30] = assay: Ratio of compound IC50 to WZ4002 IC50 for human A549 cells harboring wild type EGFR and k-RAS mutation; type: ADME, cell-based
# A-431 [31] = assay: Ratio of compound IC50 to WZ4002 IC50 for human A431 cells overexpressing wild type EGFR; type: ADME, cell-based
# [32] = Ratio of compound IC50 to WZ4002 IC50 for human BEAS2B cells harboring wild type EGFR; type: ADME, cell-based; conditions: read-out: Ratio IC50
compound,measurement,setting,value
C=CC(=O)Nc1cccc(Oc2nc(Nc3ccc(N4CCN(CC(=O)OCCCCCCOc5no[n+]([O-])c5S(=O)(=O)c5ccccc5)CC4)cc3OC)ncc2Cl)c1,Activity,Mus musculus,Non-toxic
same,inhibition in vivo at 14 mg/kg,NCI-H1975 [1],60%
same,inhibition,NCI-H1975 [2],Active
same,inhibition,[3],Dose-dependent effect
same,inhibition,[4],Dose-dependent effect
same,inhibition,[5],Dose-dependent effect
same,Activity,[6],Non-toxic
same,Activity,HCC827 [7],Dose-dependent effect
same,Activity,NCI-H1975 [8],Dose-dependent effect
same,growth inhibition (GI),NCI-H1975 [9],inactive
same,growth inhibition (GI),HCC827 [10],inactive
same,Activity,[11],Non-toxic
same,Activity,NCI-H1975 [12],Active
same,selectivity ratio,[13],40
same,selectivity ratio,[14],40
same,selectivity ratio,[15],40
same,selectivity ratio,[16],40
same,Ratio IC50,[17],60
same,Ratio IC50,[18],60
same,Ratio IC50,[19],60
same,Ratio IC50,[20],60
same,IC50,cells [21],23900 nM
same,IC50,cells [22],44600 nM
same,IC50,A-431 [23],5670 nM
same,IC50,A549 [24],> 50000 nM
same,IC50,NCI-H1975 [25],29 nM
same,IC50,[26],292 nM
same,IC50,cells [27],7 nM
same,IC50,[28],47 nM
same,IC50,[29],305 nM
same,Ratio IC50,A549 [30],5
same,Ratio IC50,A-431 [31],5
same,selectivity ratio,[32],5
